# How the values were obtained:
# [1] = in vivo; cited from earlier work
# mice = conditions: mouse, in vivo, po
SMILES,value indicated for oral toxicity [1] [mg/kg body weight],behavioral recovery (mice),survival rate (mice)
O=S([O-])S(=O)[O-].[Na+].[Na+] [sodium dithionite],2500,,
"[C-]#[O+] [CO, carbon monoxide]",,behavior recovered from being incapable of action,high
